In patent publication US6451801B1, “Compounds and methods for treatment of asthma, allergy and inflammatory disorders” (UCB, S.A., priority 1999, dated 2002):

Legend:
[1] = molecular target: T1, human 5-lipoxygenase enzyme (Homo sapiens, UniProt P09917); experiment: Inhibition of LTB4 production in human whole blood; type: cell-based; details: human whole blood, calcium ionophore A23187 50 μM, LTB4 by EIA; read-out: HWB IC50
T1 construct: endogenous in cells; host or cells: human whole blood (leukocytes) stimulated with A23187
T1 sequence (P09917 1-674): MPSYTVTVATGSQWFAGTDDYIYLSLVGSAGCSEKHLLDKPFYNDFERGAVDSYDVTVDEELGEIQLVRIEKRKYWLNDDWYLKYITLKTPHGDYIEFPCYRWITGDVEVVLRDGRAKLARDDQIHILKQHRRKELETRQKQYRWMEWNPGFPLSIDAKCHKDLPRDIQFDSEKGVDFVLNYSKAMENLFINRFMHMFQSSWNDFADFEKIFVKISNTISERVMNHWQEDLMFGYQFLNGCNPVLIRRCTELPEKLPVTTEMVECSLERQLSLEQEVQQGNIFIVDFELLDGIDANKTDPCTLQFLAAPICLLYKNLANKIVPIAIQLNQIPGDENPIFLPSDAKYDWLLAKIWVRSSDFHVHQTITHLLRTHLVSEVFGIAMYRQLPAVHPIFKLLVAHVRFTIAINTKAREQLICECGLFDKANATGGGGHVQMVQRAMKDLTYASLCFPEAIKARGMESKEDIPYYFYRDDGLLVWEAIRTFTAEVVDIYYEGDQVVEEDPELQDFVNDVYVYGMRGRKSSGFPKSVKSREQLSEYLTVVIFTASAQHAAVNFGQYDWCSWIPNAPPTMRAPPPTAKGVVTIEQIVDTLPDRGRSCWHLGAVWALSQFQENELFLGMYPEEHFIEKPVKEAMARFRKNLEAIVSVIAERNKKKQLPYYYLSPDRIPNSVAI
Method: This assay examines the ability of a compound to inhibit leukotriene B4 production from human blood stimulated with calcium ionophore. As this production of leukotriene B4 is mediated via the activation of the 5-lipoxygenase enzyme, this assay is predictive of a compound's ability to inhibit the human 5-lipoxygenase enzyme.
The procedure for the assay is as follows. Blood is drawn from normal human volunteers into tubes containing heparin. 1 ml of the heparinized blood is pipetted into a 1.5 ml polypropylene tube. To this sample is added either different concentrations of the test compound (5 μl) dissolved in DMSO or 5 μl of DMSO as a vehicle control. These samples are incubated in a water bath, at 37° C. for 15 min. 5 μl of the calcium ionophore A23187 (at a final concentration of 50 μM) is then added to each sample, which is vortexed and placed back in the water bath for 30 min. The samples are then centrifuged at 2500 rpm for 10 min. at 4° C. 50 μl of the supernatant is transferred into pre-cooled Eppendorf tubes containing 950 μl of enzyme immunoassay (EIA) buffer. A commercially available EIA kit (Cayman Chemical Co., Ann Arbor, Mich., USA) is used to subsequently measure the LTB4 production in the samples. The LTB4 levels produced in the vehicle control sample is then compared to those in which the test compound has been added. From this a percent inhibition of LTB4 production by each concentration of test compound is calculated and the IC50 for inhibition of LTB4 production for each test compound is determined.

human cloned H1 receptor = molecular target: T2, human cloned H1 receptor (Homo sapiens, UniProt P35367); experiment: CHO-K1 H1R binding assay; details: 3H-pyrilamine 2 nM, CHO-K1 membranes, 3 hours at 37° C.; read-out: CHOH1 K1
T2 construct: expressed in transfected cells; host or cells: CHO-K1
T2 sequence (P35367 whole entry): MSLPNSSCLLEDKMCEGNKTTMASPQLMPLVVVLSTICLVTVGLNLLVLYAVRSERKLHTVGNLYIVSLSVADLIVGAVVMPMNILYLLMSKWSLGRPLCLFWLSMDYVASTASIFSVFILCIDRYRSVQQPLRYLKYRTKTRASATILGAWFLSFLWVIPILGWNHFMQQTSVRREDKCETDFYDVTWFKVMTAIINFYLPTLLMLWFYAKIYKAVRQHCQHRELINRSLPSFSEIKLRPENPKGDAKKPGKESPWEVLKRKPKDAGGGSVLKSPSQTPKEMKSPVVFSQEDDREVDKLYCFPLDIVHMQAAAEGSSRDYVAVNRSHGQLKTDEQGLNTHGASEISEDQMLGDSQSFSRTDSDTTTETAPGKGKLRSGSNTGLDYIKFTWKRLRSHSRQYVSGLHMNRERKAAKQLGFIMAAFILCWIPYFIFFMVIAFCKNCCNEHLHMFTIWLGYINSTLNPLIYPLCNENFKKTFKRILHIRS
Method: CHO-K1 cells expressing the human cloned H1 receptor are grown to confluence in tissue culture dishes. Cells are harvested using D-PBS buffer (JRH Biosciences), kept at 4° C., centrifuging to pellet cells (4° C., 500 g, 10 min). The final cell pellet is homogenized and resuspended using Tris/sucrose buffer (20 mM Tris, 250 mM sucrose, pH 7.4 at 4° C.). Aliquots of the membrane preparation are stored at −70° C.
On the day of assay, the membrane preparation is thawed and centrifuged (TLA100.3 rotor, 4° C., 15 min, 23,000 rpm). The pellet is resuspended in Tris/sucrose buffer initially and then diluted further as necessary using assay buffer A (50 mM Na/KPO4, 2 mM MgCl2, 0.5% (w/v) BSA, pH 7.5).
For the binding assay, the membrane preparation, test compound and ^3H-pyrilamine (2 nM final) in buffer A with 1% (v/v) DMSO final are incubated in a 96-well polypropylene plate for 3 hours at 37° C. Non-specific binding is determined in the presence of 10 μM pyrilamine. A 96-well harvester (Packard) is used to harvest the 96-well plate onto a GF/B filter plate pre-treated with 0.1% (v/v) PEI. The plate is counted in a Packard Topcounter after adding Microscint 20 (Packard) scintillation fluid. The Ki for each compound at the histamine H1 receptor is then calculated from these counts.

Row | Compound | IC50 [1] [nM] | Ki (human cloned H1 receptor) [nM]
1 | NC(=O)N(O)CCOCCN1CCN([C@H](c2ccccc2)c2ccc(Cl)cc2)CC1 (racemic) [Compound 18, amino-N-[2-(2-{4-[(4-chlorophenyl)phenylmethyl]piperazinyl}ethoxy)ethyl]-N-hydroxyamide] | 2100 | 15
2 | NC(=O)N(O)CCCCc1ccc(OCCN2CCN([C@H](c3ccccc3)c3ccc(Cl)cc3)CC2)c(C(=O)O)c1 [Compound 43, 2-(2-{4-[(1R)(4-chlorophenyl)phenylmethyl]piperazinyl}ethoxy)-5-[4-(aminohydroxycarbonylamino)butyl] benzoic acid] | 2740 | 2
3 | NC(=O)N(O)CCC#Cc1ccc(OCCN2CCN([C@H](c3ccccc3)c3ccc(Cl)cc3)CC2)c(C(=O)O)c1 [Compound 37, 2-(2-{4-[(1R)(4-chlorophenyl)phenyl-methyl]piperazinyl}ethoxy)-5-[4-(amino-hydroxycarbonylamino)but-1-ynyl]benzoic acid] | 6590 | 4
4 | NC(=O)N(O)Cc1ccc(C#CCN2CCN([C@H](c3ccccc3)c3ccc(Cl)cc3)CC2)cc1 [Compound 3, N-{[4-(3-{4-[(1R) (4-chlorophenyl)phenylmethyl]piperazinyl}prop-1-ynyl)phenyl]methyl} amino-N-hydroxyamide] | 1680 | 260
5 | NC(=O)c1cc(CCCCN(O)C(N)=O)ccc1OCCN1CCN([C@H](c2ccccc2)c2ccc(Cl)cc2)CC1 [Compound 42, 2-(2-{4-[(1R)(4-chloro-phenyl)phenylmethyl]piperazinyl}ethoxy)-5-[4-(aminohydroxy-carbonylamino)butyl] benzamide] | 106 | 35
6 | COC(=O)c1cc(CCCCN(O)C(N)=O)ccc1OCCN1CCN([C@H](c2ccccc2)c2ccc(Cl)cc2)CC1 [Compound 40, methyl2-(2-{4-[(1R) (4-chlorophenyl)phenyl-methyl]piperazinyl}ethoxy)-5-[4-(amino-hydroxycarbonylamino)butyl]benzoate] | 122 | 120
7 | NC(=O)N(O)Cc1cccc(OCCN2CCN([C@H](c3ccccc3)c3ccc(Cl)cc3)CC2)c1 [Compound 5, N-{[3-(2-{4-[(1R) (4-chlorophenyl)phenylmethyl]piperazinyl}ethoxy)phenyl]methyl} amino-N-hydroxyamide] | 2040 | 23
8 | N-[2-(2-{4-[(1R)(4-chlorophenyl)phenylmethyl] piperazinyl}ethoxy)ethyl]amino-N-hydroxyamide [Compound 22] | 1470 | 8
9 | NC(=O)N(O)Cc1cccc(C#CCN2CCN([C@H](c3ccccc3)c3ccc(Cl)cc3)CC2)c1 [Compound 8, N-{[3-(3-{4-[(1R) (4-chlorophenyl)phenylmethyl]piperazinyl}prop-1-ynyl)phenyl]methyl} amino-N-hydroxyamide] | 5770 | 220
10 | NC(=O)N(O)CC#CCN1CCN(C(c2ccc(F)cc2)c2ccc(F)cc2)CC1 [Compound 16, amino-N-(4-{4-[bis(4-fluorophenyl)methyl]piperazinyl}but-2-ynyl)-N-hydroxyamide] | 2660 | 94
11 | NC(=O)N(O)Cc1ccc(CCCN2CCN([C@H](c3ccccc3)c3ccc(Cl)cc3)CC2)cc1 [Compound 13, N-{[4-(3-{4-[(1R) (4-chlorophenyl)phenylmethyl]piperazinyl}propyl)phenyl]methyl} amino-N-hydroxyamide] | 2440 | 10
12 | NC(=O)N(O)Cc1ccc(CN2CCN([C@H](c3ccccc3)c3ccc(Cl)cc3)CC2)o1 [Compound 26, N-{[5-({4-[(1R) (4-chlorophenyl)phenylmethyl]piperazinyl}methyl)(2-furyl)]methyl} amino-N-hydroxyamide] | 1710 | 4
13 | CN(O)C(=O)NCc1cccc(OCCN2CCN([C@H](c3ccccc3)c3ccc(Cl)cc3)CC2)c1 [Compound 24, N-{[3-(2-{4-[(1R) (4-chlorophenyl)phenylmethyl]piperazinyl}ethoxy)phenyl]methyl} (methyl(hydroxyamino)) carboxamide] | 253 | 7
